Patent US20250008959A1, “HERBICIDES AND USE THEREOF” (Projini Agchem LTD, priority 2021, published 2025)
Where two headings read alike, the source gives them in different places.

Experiments:
Solanum nigrum = experiment: Pre-emergence assay in pots; type: in vivo; details: pots sprayed with 2 ml, 5 mM, monitored 21 days
Description: (§1) 7×7 cm pots were prepared with 20% soil and 80% sand. Trifolium alexandrium (16 seeds), Lolium rigidum (25 seeds), Solanum nigrum (25 seeds), Amaranthus palmeri (40 seeds) or Sinapis arvensis (12 seeds) were sowed and 2 cm of strained sand was used to cover the seeds. The pots were placed in the growth room under a lighting regime of 16 hours of light and 8 hours in the dark at 23° C. The day after (except for the Solanum and Amaranthus 4-5 days after), the pots were sprayed in a chemical hood at a 45° angle with 2 ml spray solution containing 1:10 acetone or phosphate buffer dissolved active ingredient in tap water to a final concentration of 5 mM. Every 2-3 days the pots were irrigated with tap water.
(§2) Pre-emergence herbicidal activity was determined by monitoring plant growth in pots. Molecules were dissolved at the indicated concentrations below and volume of 2 ml was sprayed onto the soil, and plant growth was monitored for 21 days.

[1] = molecular target: T1, OASS-SAT complex (AtOASS with SAT-derived peptide) (Arabidopsis thaliana, UniProt P47998); experiment: Fluorescence polarization (FP) competition with FITC-labeled SAT-derived peptide bound to OASS; type: binding; details: competition with FITC-SAT peptide 200 nM, OASS 2.2 μM; for IC50: single site inhibition model
T1 construct: GST (N, cleaved yes); made in house; host or cells: E. coli Rosetta (DE3)
T1 sequence (P47998 whole entry, one chain of several): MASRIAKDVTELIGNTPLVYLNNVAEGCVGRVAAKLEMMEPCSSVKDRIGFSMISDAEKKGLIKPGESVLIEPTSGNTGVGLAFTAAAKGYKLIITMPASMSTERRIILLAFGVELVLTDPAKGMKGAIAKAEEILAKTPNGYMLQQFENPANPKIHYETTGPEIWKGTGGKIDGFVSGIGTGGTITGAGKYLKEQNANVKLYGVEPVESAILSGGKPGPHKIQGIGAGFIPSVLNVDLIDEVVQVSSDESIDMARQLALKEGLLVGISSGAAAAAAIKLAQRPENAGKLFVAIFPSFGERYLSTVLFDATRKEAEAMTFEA
Description: Molecules were also tested for their ability to compete with the OASS binding to the SAT-derived peptide via a fluorescence polarization (FP) competition assay wherein the N-terminus labeled peptide was incubated with the AtOASS (see Examples section below). High FP values correspond to the peptide-bound state (low molecule concentrations) and low FP values correspond to the peptide-free state (low FP values). To extract the IC50, the FP data were fitted to a single site inhibition model in PRISM by GraphPad Software. The corresponding IC50 values were extracted, whereas low IC50 values correspond to molecule that better competes with the peptide binding to AtOASS. Fluorescence polarization (FP) measurements were made on samples arrayed in 96-well plates by using BioTek H1 Synergy instrument equipped with FP module. […] The peptide in a concentration of 200 nM was incubated with OASS at a concentration of 2.2 μM in each well. Variable concentrations of each molecule starting from 100 μM down to 0.048 μM were added to evaluate the ability of each molecule to compete off the FITC labeled peptide bound to OASS. Fluorescence experiments were executed with an Em/Exc wavelengths of 480/520 nm. All measurements were done in triplicate. Experimental polarization data from simple and competitive binding experiments were fitted using GraphPad Prism, with error bars representing SD. Molecules were also tested for their ability to compete with the OASS binding to the SAT-derived peptide via a fluorescence polarization (FP) competition assay. The N-terminus labeled peptide was incubated with the AtOASS in each of the wells in a 96-well plate. Various concentrations of the molecules were added and the FP values were recorded. High FP values correspond to the peptide-bound state (low molecule concentrations) and low FP values correspond to the peptide-free state (low FP values). To extract the IC50, the FP data were fitted to a single site inhibition model in graphpad prism. The corresponding IC50 values were extracted. Low IC50 values correspond to molecule that better competes with the peptide binding to AtOASS.

Arabidopsis thaliana [2] = experiment: Root elongation in plates (in planta root elongation assay); type: in vivo; details: 168 h, A. thaliana on MS medium plates, 7 days, read-out: Root-growth inhibition %
Description: 6-well plates were prepared in a biological hood with sterile half Murashige and Skoog mineral medium (MS; Duchefa, Haarlem, Netherlands) containing 1% sucrose (w/v), pH 5.8. Tested molecules were dissolved in 50 mM DMSO and diluted to various concentrations 1,000-fold greater than the final desired concentration the MS medium maintaining a final concentration of 0.1% DMSO. MS medium with 0.1% DMSO was used as a negative control. After 7 days the plates were scanned and the root length was calculated using the imageJ software. […] Further sterilization was done by washing the seeds with 50% hypochlorite and 0.2% Triton x-100 for 10 minutes followed by five cycles of washing with sterile water. Six seeds were placed in each well, and the plates were covered and sealed with parafilm. Plates were placed vertically at 4° C. for two days and then transferred to a growth chamber for seven days (22-24° C.) at day/light cycles of 16/8 hours. Following the in vitro evaluation, selected molecules were tested for their ability to inhibit A. thaliana root elongation on agar plates. Seeds were plated on medium containing the molecules dissolved in the indicated concentrations and root length was measured after 6 or 7 days when the root in the non-treated plate reached the end of the well.

Arabidopsis thaliana [3] = experiment: L-cysteine recovery root elongation assay; type: in vivo; details: for IC50: Arabidopsis thaliana, read-out: IC50 of A. thaliana growth inhibition
Description: For the L-cysteine recovery root elongation assay, 6-well plates were prepared in a biological hood with sterile half Murashige and Skoog mineral medium (MS; Duchefa, Haarlem, Netherlands) containing 1% sucrose (w/v), pH 5.8. A stock of 10 mM L-cysteine in DDW was prepared and diluted to a final concentration of 0.03 mM into the MS medium in the presence of 25 to 1.56 μM of PJL 109. The MS medium maintained a final concentration of 0.1% DMSO. MS medium with 0.1% DMSO and 0.03 mM L-cysteine was used as a negative control. After 7 days the plates were scanned and the root length was calculated using the imageJ software.
Arabidopsis thaliana seeds were washed with 70% ethanol for 1 minute and then with sterile water. Further sterilization was done by washing the seeds with 50% hypochlorite and 0.2% Triton x-100 for 10 minutes followed by five cycles of washing with sterile water. Six seeds were placed in each well, and the plates were covered and sealed with parafilm. Plates were placed vertically at 4° C. for two days and then transferred to a growth chamber for seven days (22-24° C.) at day/light cycles of 16/8 hours.

[4] = molecular target: T2, AtOASS (O-acetyl serine sulfhydrylase from Arabidopsis thaliana) (Arabidopsis thaliana, UniProt P47998); experiment: Isothermal titration calorimetry (ITC) binding to OASS; details: OASS titrated into compound in ITC cell; single binding model
T2 construct: GST (N, cleaved yes); made in house; host or cells: E. coli Rosetta (DE3)
T2 sequence (P47998 whole entry): as the sequence (P47998 whole entry, one chain of several) above
Text: To evaluate the ability of the molecules to bind AtOASS (O-acetyl serine sulfhydrylase from Arabidopsis thaliana), the protein was placed in the ITC syringe and was titrated with the molecules that were placed in the ITC cell (see Examples section below). The direct dissociation binding constant (Kd) was then extracted from the binding curve using a single binding model, wherein a low Kd value corresponds to a stronger binding affinity.
To evaluate the binding of the small molecules to the enzyme OASS, the purified protein was placed in a 6-8 MWCO dialysis bag in 30 mM phosphate buffer, 30 mM NaCl, 1 mM TCEP, and 5% dimethyl sulfoxide. Sequential buffer exchange dialyses were executed for 12 hours each at 4° C. until dilution of >10,000 was achieved. Before the execution of the ITC binding experiment, the OASS was placed in the ITC syringe at a concentration of 400 μM and each of the small molecules was dissolved in the same dialysis buffer to a final concentration of 40 μM in the ITC cell. ITC experiments were conducted by titrating the OASS to the compounds in the cell. The ITC binding constant was evaluated using the build-in analysis software.
The designed de-novo herbicidal compounds were synthesized and evaluated for their in vitro and in planta activity. After dissolving the molecules to a stock of 50 mM in DMSO, binding and competition with the SAT-derived peptides were evaluated using ITC and FP. ITC measures the direct heat change occurring due to the interaction of a pair of molecules. ITC has certain advantages, such as the capability to detect a relatively broad range of binding affinities, being a label-free method, and providing a wide set of interaction parameters, such as affinity, stoichiometry, enthalpy, and entropy of binding. To evaluate the ability of the molecules to bind AtOASS, the protein was placed in the ITC syringe and was titrated with the molecules that were placed in the ITC cell. The direct dissociation binding constant (Kd) was then extracted from the binding curve using a single binding model. Two consecutive experiments were combined using the built in ITC module to enable better quantification. A low Kd value corresponds to a stronger binding affinity.

Sinapis arvensis = experiment: Pre-emergence assay in pots; type: in vivo; details: pots sprayed with 2 ml, 5 mM, monitored 21 days
Description: as §1, §2

Lolium rigidum = experiment: Pre-emergence assay in pots; type: in vivo; details: pots sprayed with 2 ml, 5 mM, monitored 21 days
Description: as §1, §2

Trifolium alexandrium = experiment: Pre-emergence assay in pots; type: in vivo; details: pots sprayed with 2 ml, 5 mM, monitored 21 days
Description: as §1, §2

Amaranthus palmeri = experiment: Pre-emergence assay in pots; type: in vivo; details: pots sprayed with 2 ml, 5 mM, monitored 21 days
Description: as §1, §2

SMILES | FP % inhibition [1] [%] | IC50 [1] [µM] | Kd [4] [µM] | inhibition at 50 µM (Arabidopsis thaliana [2]) [%] | further results
O=C(O)c1ccccc1-c1ocnc1C(=O)Nc1nc(-c2ccc(Cl)cc2Cl)cs1 [PJL-117] | 10 | 248 |  | 100 | Pre-emergence assay Germination inhibition on (%) (Sinapis arvensis): 90%; Pre-emergence assay Growth inhibition on (%) (Sinapis arvensis): 80%; Pre-emergence assay Germination inhibition on (%) (Lolium rigidum): 0%; Pre-emergence assay Growth inhibition on (%) (Lolium rigidum): 60%
COc1ccc(C(=O)O)c(NS(=O)(=O)c2cnc(-c3ccc(F)cc3)s2)c1 [PJL-79] | 18 | 55 | 7.1 | 97 | Pre-emergence assay Germination inhibition on (%) (Sinapis arvensis): 95%; Pre-emergence assay Growth inhibition on (%) (Sinapis arvensis): 90%
O=C(O)c1cc(F)ccc1NS(=O)(=O)c1cnc(-c2ccccc2)s1 [PJL-47] | 16 | 68 | 6 | 88 | Pre-emergence assay Germination inhibition on (%) (Amaranthus palmeri): 66%; Pre-emergence assay Growth inhibition on (%) (Amaranthus palmeri): 20%
COc1ccc(C(=O)O)cc1S(=O)(=O)Nc1ccc(NC(=O)CC(C)C)cc1 [PJL-30] | 11 | 300 | 6.6 | 0 | 
COc1ccc(-c2csc(NC(=O)c3ncccc3-c3ccccc3C(=O)O)n2)cc1 [PJL-127] | 38 | 15.3 | 7.6 | 100 | 
O=C(O)c1cccc(NC2=C(Cl)C(=O)N(c3ccc(Cl)c(Cl)c3)C2=O)c1 [PJL-103] | 21 | 73 | 9.37 | 0 | 
O=C(O)c1cc2c(c(S(=O)(=O)Nc3ccc(OCc4ccccn4)c(Cl)c3)c1)CCC2 [PJS-39] | 14 | 72 | 7.5 | 2.3 | 
CC(C)(C)NC(=O)c1ccc(NC(=O)c2ccccc2-c2ccccc2C(=O)O)cc1 [PJL-67] | 30 | 20.9 | 2.38 | 9 | 

Now those with a lower IC50 [1], led by results:

FP % inhibition [1] [%] | IC50 [1] [µM] | Kd [4] [µM] | SMILES | inhibition at 50 µM (Arabidopsis thaliana [2]) [%] | further results
48 | 5.4 | 0.07 | O=C(O)c1ccccc1-c1ccccc1C(=O)Nc1nc(-c2ccc(Cl)cc2Cl)cs1 [PJL-109] | 89 | Pre-emergence assay Germination inhibition on (%) (Solanum nigrum): 63%; Pre-emergence assay Growth inhibition on (%) (Solanum nigrum): 0%; effect of added cysteine on the inhibition by the compound (Arabidopsis thaliana [3]; 0.03 mM L-cysteine on agar plates, dose-response, result in words): partially reverses the germination inhibition effect; IC50 (Arabidopsis thaliana [3]; 0 mM L-cysteine (no external addition of cysteine)): 1.7 µM; IC50 (Arabidopsis thaliana [3]; 0.03 mM L-cysteine in the medium): 4.9 µM
41 | 3.6 | 0.5 | COc1ccc(-c2csc(NC(=O)c3ccccc3-c3ccccc3C(=O)O)n2)c(Cl)c1 [PJL-116] | 92 | Pre-emergence assay Germination inhibition on (%) (Trifolium alexandrium): 75%; Pre-emergence assay Growth inhibition on (%) (Trifolium alexandrium): 80%
43 | 4.7 | 0.4 | COc1ccc(-c2csc(NC(=O)c3ccccc3-c3ccccc3C(=O)O)n2)cc1 [PJL-61] | 95 | Pre-emergence assay Germination inhibition on (%) (Amaranthus palmeri): 33%; Pre-emergence assay Growth inhibition on (%) (Amaranthus palmeri): 0%; Pre-emergence assay Germination inhibition on (%) (Trifolium alexandrium): 70%; Pre-emergence assay Growth inhibition on (%) (Trifolium alexandrium): 60%
41 | 1.9 | 0.32 | NCCc1ccc(-c2csc(NC(=O)c3ccccc3-c3ccccc3C(=O)O)n2)cc1 [PJL-107] | 29 | 
45 | 1.9 | 0.94 | Cc1cc(-c2cc(NC(=O)c3ccccc3-c3ccccc3C(=O)O)[nH]n2)ccc1OCCN1CCOCC1 [PJL-106] | 0 | 
38 | 4 | 1.77 | O=C(O)c1ccccc1-c1ccccc1C(=O)Nc1cccc(-c2nc3ccccc3[nH]2)c1 [PJL-65] | 0 | 
